Data reported in ChEMBL document CHEMBL1153252, “Anti-human immunodeficiency virus activity and cytotoxicity of derivatized buckminsterfullerenes” (Bioorg Med Chem Lett, 1996).

Legend:
[1] = Compound was evaluated for the toxicity in human PBM cells; type: functional, cell-based
Vero = experiment: Compound was evaluated for the toxicity in rapidly dividing Vero cells (African Green monkeys kidney cells); type: functional, cell-based; conditions: Chlorocebus sabaeus
[2] = Compound was evaluated for the anti-HIV-1 activity in human peripheral blood mononuclear cells infected with HIV-1LA1.; type: functional

SMILES	EC50 ([2]; Homo sapiens) [µM]	EC50 [2] [µM]	IC50 [1] [µM]	IC50 (Vero) [µM]
c1ccc(C2(c3ccc4c(c3)OCCOCCOCCOCCOCCO4)C34C5=C6C7=C8Cc9c%10c8c8c%11c%12c%13c%14c%15c(c6c6c%16c%17c(c%18c%19c3c(c3c9c9c%20c%10c%11c%10c%11c%12c%12c%14c(c%15%16)c%14c%17c%15c%18c%16c%19c3c9c3c%16c9c%15c%14c%12c%11c9c3c%20%10)C5)C642)C7C8%13)cc1 (centres undefined)	137	–	> 100	> 100
CC12CCC/C(=N\OCC(=O)O)C1C13c4c5c6c7c8c9c%10c%11c%12c%13c%14c%15c(c6c6c4c4c%16c%17c%18c(c%19c%20c1c5c8c1c%20c5c%19c8c%18c%18c%19c%17c%17c4c6c%15c4c%14c6c%12c%12c%14c%11c(c91)c5c%14c8c%18c%12c6c%19c4%17)C%1623)C7C%10%13 (centres undefined)	21.7	–	> 100	> 100
CN1CC23C4=C5Cc6c7c5c5c8c9c%10c%11c%12c(c2c2c%13c%14c%15c%16c%17c%18c%19c%20c(c6c6c%20c%20c%18c%18c%21c%17c%14c%14c(c%12%13)c%11c%11c9c9c%12c8c7c6c%12c%20c%18c9c%11c%14%21)=C6CC3(C1)C(C2%15)C61CN(C)CC%16%191)C4C5%10 (centres undefined)	72.7	–	> 100	> 100
COC1CC(=O)CC23C4=c5c6c7c8c9c%10c%11c%12c%13c%14c%15c%16c%17c%18c%19c%20c(c%21c%22c%23c(c5c5c6c6c8c%11c8c%11c%12c%12c%14c(c%15%19)c%14c%20c%22c%15c%19c%23c5c(c68)c%19c%11c%12c%14%15)C%2112)C%18C3C1(C4)C(OC)CC(=O)CC%171C(=C9C7)C%16C%10%13 (single isomer, unassigned; isomer A)	–	> 100	–	–
COC1CC(=O)CC23C4=c5c6c7c8c9c%10c%11c%12c%13c%14c%15c%16c%17c%18c%19c%20c(c%21c%22c%23c(c5c5c6c6c8c%11c8c%11c%12c%12c%14c(c%15%19)c%14c%20c%22c%15c%19c%23c5c(c68)c%19c%11c%12c%14%15)C%2112)C%18C3C1(C4)C(OC)CC(=O)CC%171C(=C9C7)C%16C%10%13 (stereo in doubt)	–	7.7	> 100	> 100
Cc1cn([C@H]2C[C@H](N=[N+]=[N-])[C@@H](CO)O2)c(=O)[nH]c1=O [ZIDOVUDINE]	0.004	–	> 100	–

Further lines, with some results ahead:

EC50 ([2]; Homo sapiens) [µM]	EC50 [2] [µM]	SMILES	IC50 [1] [µM]	IC50 (Vero) [µM]
6.3	–	O=C(O)CCC(=O)OC1CCC23c4c5c6c7c8c9c%10c%11c%12c%13c%14c%15c%16c%17c%18c(c9c6c6c%18c9c%17c%17c%15c%15c%18c%14c%14c%12c%12c%11c8c(c8c%11c2c2c4c4c(c56)c9c5c4c4c2c2c%11c(c8%12)c%14c%18c2c4c%15c%175)C73C1)C%10C%13%16 (centres undefined)	> 100	> 100
2.9	–	O=C(O)CO/N=C1\CCC23c4c5c6c7c8c9c%10c%11c%12c%13c%14c%15c%16c%17c%18c(c9c6c6c%18c9c%17c%17c%15c%15c%18c%14c%14c%12c%12c%11c8c(c8c%11c2c2c4c4c(c56)c9c5c4c4c2c2c%11c(c8%12)c%14c%18c2c4c%15c%175)C73C1)C%10C%13%16 (centres undefined)	> 100	> 100
2.5	–	O=C(CCCc1ccc(C2(c3ccccc3)C34c5c6c7c8c9c%10c(c%11c%12c3c3c5c5c%13c6c6c7c7c9c9c%14c%10c%10c%11c%11c%12c%12c3c3c5c5c%13c%13c6c6c7c9c7c9c%14c%10c%10c%11c%11c%12c3c3c5c5c%13c6c7c6c9c%10c%11c3c56)C824)cc1)NC(CO)(CO)CO (centres undefined)	> 100	> 100
7.3	–	O=C(O)CO/N=C1\C=CC23c4c5c6c7c8c9c%10c%11c%12c%13c%14c%15c%16c%17c%18c(c9c6c6c%18c9c%17c%17c%15c%15c%18c%14c%14c%12c%12c%11c8c(c8c%11c2c2c4c4c(c56)c9c5c4c4c2c2c%11c(c8%12)c%14c%18c2c4c%15c%175)C73C1)C%10C%13%16 (centres undefined)	> 100	33.9
0.9	–	COC1C/C(=N\OCC(=O)O)CC23c4c5c6c7c8c9c(c%10c%11c2c2c4c4c%12c5c5c6c6c8c8c%13c9c9c%10c%10c%11c%11c2c2c4c4c%12c%12c5c5c6c8c6c8c%13c9c9c%10c%10c%11c2c2c4c4c%12c5c6c5c8c9c%10c2c45)C713 (centres undefined)	> 100	> 100
2.2	–	CC1C=CC(COC(=O)CCC(=O)O)C23c4c5c6c7c8c9c%10c%11c%12c%13c%14c%15c%16c%17c%18c(c9c6c6c%18c9c%17c%17c%15c%15c%18c%14c%14c%12c%12c%11c8c(c8c%11c2c2c4c4c(c56)c9c5c4c4c2c2c%11c(c8%12)c%14c%18c2c4c%15c%175)C713)C%10C%13%16 (centres undefined)	> 100	> 100
17.6	–	OC1CCC23CC4=c5c6c7c8c9c%10c%11c%12c%13c%14c%15c%16c%17c(c-8c8c%18c%17c%17c(c%19c%20c%21c%22c%23c%24c%25c%26c%27c%28c(c5c(c6%10)c5c%28c%25c(c%13c%24c%14c%22c%16c%17%21)c%115)CC%27=C(C%20C%23%26)C%192C1)C%18C3C41CC(O)CCC871)C9%15%12 (centres undefined)	> 100	> 100
7.3	–	O=C(O)CCC(=O)NCCc1ccc(C2(c3ccc(CCNC(=O)CCC(=O)O)cc3)C34c5c6c7c8c9c5c5c%10c%11c%12c(c%13c%14c%15c%16c%17c%18c%19c%20c%21c%22c(c-%13c3c6c%22c3c7c6c7c%13c%22c%23c%24c(c9c5c5c%11c9c(c%15%12)c%16c%11c%18c(c%13c%19c7c%213)c%23c%11c9c%245)C86%22)C%14C%20%17)C%1024)cc1 (centres undefined)	> 100	> 100
